# Assay results reported in US4990538A, “Use of toremifene and its metabolites for the reversal of multidrug resistance of cancer cells against cytotoxic drugs” (priority 1989, dated 1991).
# Structures can show the parent of a compound that is named as a salt. Numbered stars: 1 amine (or outer) side, 2 acyl side, 3 side chain; on linkers, the order of the positions; unused ones are H or OH. Bridge positions count the residues as written; N and C are the ends. Square brackets hold non-standard residues; d marks the D form. Peptide text beside a SMILES is read from it. I, II: the chains in the order shown. Actinocin(9to1) = Cc1c2oc3c(C)ccc(C(=O)[*:1])c3nc-2c(C(=O)[*:2])c(N)c1=O; NMeV = CN[C@H](C(=O)O)C(C)C; Sar = CNCC(=O)O
# Columns and labels:
# rat PKC = details: O'Brian et al; cited from earlier work
# MCF-7/DOX cells = experiment: Inhibition of cell growth / reversal of MDR in MCF-7/DOX cells (methylene blue); type: cell-based, human; details: for Effectiveness in reversing MDR: MCF-7/DOX cells, Table 5 and FIG. 7; for Inhibition of cell growth, Actual: 2880 min
# Protocol: The cells were cultivated in 100 ul volumes in 96-well microtiter plates. The principle of the method was to cultivate cells in the presence of the drugs/ drug combinations for 48 hours. After this time the living cells were stained with methylene blue and quantitated spectrophotometrically using microtiter plate reader (Titertek Model MCC/340) interfaced to an Apple IIe computer. Inhibition of the cell growth is expressed as a percentage of absorbance of vehicle treated control cultures.
# CHO-Adr cells = experiment: MTT cell viability assay in doxorubicin resistant CHO-Adr cells; details: CHO-Adr cell line
# Protocol: Initial cell growth studies were carried out to investigate the effect of combination toremifene +doxorubicin in doxorubicin sensitive and resistant cells. Cell cultures were carried out using wild type CHO-K1 cells as well as CHO-Adr cells, the latter being selected by a series of step-wise selections of doxorubicin resistant clones in presence of 0.4 ug/ml of doxorubicin. […] The resistant cells were stable in cell culture in the absence of doxorubicin. Both cell lines were cultivated in Hams F10 medium supplemented with 5% newborn calf serum, 5% foetal calf serum, antibiotics and 3mM glutamine. The cells were maintained as monolayer cultures 37° C. under 5% CO2. Drug sensitivity in CHO-K1and CHO-Adr cells was assessed by a semi-automated colorimetric MTT assay. The assay is dependent on the cellular reduction of MTT (3-U4,5-dimethylthiazol-2-ylA-2,5-diphenyl tertazolium bromide, thiazolyl blue) by the mitochondrial dehydrogenase of viable cells to a blue formazan product which was measured spectrophotometrically. The cells were seeded on 96-well plates and allowed to settle for 12 hours at 37° C. in 5% CO2. Appropriate drug concentrations diluted in growth medium were added for 24 hours. Toremifene was dissolved in 95% ethanol stock solution, doxorubicin stock solution was prepared in water. […] The cells were incubated with the drugs for 24 hours, after which the cells were washed twice with phosphate buffered saline before being placed in 200 μl fresh medium for a further 48 hours. At the end of this incubation 0.1 mg MTT was added to each well and incubated for 4 hours. The medium was carefully aspirated and the crystals were solubilised in 100 μ l DMSO (dimethyl sulfoxide). Absorbances at 540 nm were read immediately on an ELISA Multiskan reader. The results were expressed as a percentage of absorbance of drug treated cells compared to controls.
# The effect of AAG in the concentration of 0.1 to 2 mg/ml was assessed on the potentiation produced by toremifene.
# MDR cell = details: Ramu et al; cited from earlier work
# HOV-007 = experiment: Number of living cells (bioluminescence), ovarian cancer line HOV-007; details: toremifene 0 μM, 3 days
# Protocol: (§1) Two human ovarian cell lines were established in vitro from fresh serous ovarian cancer tissues. The lines are coded HOV-007 and HOV-018. The cells were cultivated in Eagle's MEM containing 1% unstripped foetal calf serum. The assays were carried out at 37° C. in 5% CO2 on 96 well plates.
# presented. Number of cells was quantitated after 3 days'
# HOV-018 = experiment: Number of living cells (bioluminescence), ovarian cancer line HOV-018; details: toremifene 0 μM, 4320 min
# Protocol: as §1
# Lewis Lung (LL) tumor = experiment: Schedule dependency of antitumor effect in Lewis Lung tumor
# Protocol: (§2) Lewis Lung (LL) or melanoma B-16 tumor cells, 2×10^6 cells/animal, were inoculated intramuscularly to female C-57 mice. Tumors were allowed to grow to the mean diameter of 1.5 cm after which toremifene/doxorubicin treatments were started as indicated in the next tables. Tumor size was measured before treatment and after 10 days in 2 dimensions and the mean was considered as tumor diameter. Weight of the animals was also recorded.
# B-16 melanoma = experiment: Schedule dependency of antitumor effect in B-16 melanoma
# Protocol: as §2
# Human melanoma UV-me-1 = experiment: Toremifene and doxorubicin in human melanoma UV-me-1; details: for Toremifene and doxorubicin in UV-me-1 (living cells): toremifene 0 μM, 2 days, control 100
# [1] = tested on: MCF-7 oestrogen receptor positive breast cancer cell line; details: 10 μM tamoxifen or perhexilene maleate; Foster et al; cited from earlier work
# [2] = drug 0.6 μg/ml +1 μM doxorubicin
# [3] = doxorubicin 3 mg/kg s.c. days 1-5
# [4] = doxorubicin 3 mg/kg s.c. days 6-10
compound,measurement,setting,value
CCC(=C(c1ccc(O)cc1)c1ccc(OCCN(C)C)cc1)c1ccccc1 [4-hydroxy tamoxifen],Inhibition of rat PKC activity in vitro,rat PKC,inhibition of rat PKC activity in vitro
"CN(C)CCOc1ccc(C(=C(CCCl)c2ccccc2)c2ccc(O)cc2)cc1 [4-hydroxytoremifene, 4-chloro-1-(4-hydroxyphenyl)-2-phenyl-1-(4-(2-(N,N-dimethylamino)ethoxy)phenyl)-1-butene]",Effectiveness in reversing MDR,MCF-7/DOX cells,slightly less effective
same,"Inhibition of cell growth, Actual",MCF-7/DOX cells; [2],28 % control
same,Potential (potentiation of doxorubicin activity),MCF-7/DOX cells; [2],8 % control
same,"Inhibition of cell growth, Actual",MCF-7/DOX cells; drug […] +1 μM doxorubicin,45 % control
same,Potential (potentiation of doxorubicin activity),MCF-7/DOX cells; drug […] +1 μM doxorubicin,10 % control
"CNCCOc1ccc(C(=C(CCCl)c2ccccc2)c2ccccc2)cc1 [N-demethyltoremifene, 4-chloro-1,2-diphenyl-1-(4-(2-(N-methylamino)ethoxy)phenyl)-1-butene]",Effectiveness in reversing MDR,MCF-7/DOX cells,almost equally effective
same,"Inhibition of cell growth, Actual",MCF-7/DOX cells; [2],28 % control
same,Potential (potentiation of doxorubicin activity),MCF-7/DOX cells; [2],33 % control
same,"Inhibition of cell growth, Actual",MCF-7/DOX cells; drug […] +1 μM doxorubicin,40 % control
same,Potential (potentiation of doxorubicin activity),MCF-7/DOX cells; drug […] +1 μM doxorubicin,43 % control
"Cc1c2oc3c(C)ccc(C(=O)N[C@@H]4C(=O)N[C@H](C(C)C)C(=O)N5CCC[C@H]5C(=O)N(C)CC(=O)N(C)[C@@H](C(C)C)C(=O)O[C@@H]4C)c3nc-2c(C(=O)N[C@@H]2C(=O)N[C@H](C(C)C)C(=O)N3CCC[C@H]3C(=O)N(C)CC(=O)N(C)[C@@H](C(C)C)C(=O)O[C@@H]2C)c(N)c1=O [actinomycin D, reference compound] (I: T[dV]P[Sar][NMeV] / II: T[dV]P[Sar][NMeV]; ester I:1-I:C, II:1-II:C; linker I:N-II:N via Actinocin(9to1))",Resistance of the CHO-Adr cell line,CHO-Adr cells,cross-resistant
CCN(CC)CCOc1ccc(C(=C(Cl)c2ccccc2)c2ccccc2)cc1 [clomiphene],Reversal of MDR by triparonol analogues,MDR cell,reversal of MDR
"COc1cc2c(c(OC)c1OC)-c1ccc(OC)c(=O)cc1[C@@H](NC(C)=O)CC2 [colchicine, reference compound]",Resistance of the CHO-Adr cell line,CHO-Adr cells,cross-resistant
"COc1cccc2c1C(=O)c1c(O)c3c(c(O)c1C2=O)C[C@@](O)(C(C)=O)C[C@@H]3O[C@H]1C[C@H](N)[C@H](O)[C@H](C)O1 [daunorubicin, reference compound]",Resistance of the CHO-Adr cell line,CHO-Adr cells,cross-resistant
COc1cccc2c1C(=O)c1c(O)c3c(c(O)c1C2=O)C[C@@](O)(C(=O)CO)C[C@@H]3O[C@H]1C[C@H](N)[C@H](O)[C@H](C)O1 [doxorubicin],Number of living cells,HOV-007; doxorubicin 0.1 μg/ml,87% of control values
same,Number of living cells,HOV-007; doxorubicin 0.3 μg/ml,64% of control values
same,Number of living cells,HOV-007; doxorubicin 1.0 μg/ml,41% of control values
same,Number of living cells,HOV-018; doxorubicin 0.1 μg/ml,96% of control values
same,Number of living cells,HOV-018; doxorubicin 0.3 μg/ml,89% of control values
same,Change of body weight,Lewis Lung (LL) tumor; [3],-2 g
same,Change of tumor diameter,Lewis Lung (LL) tumor; [3],+2.0 mm
same,Change of body weight,Lewis Lung (LL) tumor; [4],+10 g
same,Change of tumor diameter,Lewis Lung (LL) tumor; [4],+3.7 mm
same,Change of body weight,B-16 melanoma; [3],-5 g
same,Change of tumor size,B-16 melanoma; [3],+1.9 mm
same,Change of body weight,B-16 melanoma; [4],-2 g
same,Change of tumor size,B-16 melanoma; [4],+3.1 mm
same,Sensitivity of the cell line,Human melanoma UV-me-1; UV-me-1,relatively sensitive
same,Toremifene and doxorubicin in UV-me-1 (living cells),Human melanoma UV-me-1; doxorubicin 0.1 μg/ml,74
same,Toremifene and doxorubicin in UV-me-1 (living cells),Human melanoma UV-me-1; doxorubicin 1.0 μg/ml,9
same,Resistance of the CHO-Adr cell line,CHO-Adr cells,resistant
COc1ccc2c(c1)CCC(c1ccccc1)=C2c1ccc(OCCN2CCCC2)cc1 [nafoxidine],Reversal of MDR by triparonol analogues,MDR cell,reversal of MDR
"C1CCC(C(CC2CCCCN2)C2CCCCC2)CC1 (stereo not shown) [perhexilene maleate, perhexiline maleate]",Modulation of multidrug resistance,[1],modulation of multidrug resistance
